Experimental data taken from paper PMC6261607, “Novel high–throughput myofibroblast assays identify agonists with therapeutic potential in pulmonary fibrosis that act via EP2 and EP4 receptors” (PLoS ONE, 2018).
Where a name gives a salt, the structure may show the parent alone. Read-outs that look alike come from different tables or passages of the source.

Columns and labels:
[1] = test system: normal human lung fibroblasts (NHLF); test: Phenotypic high-content assay (HCA) of TGF–β1–induced fibroblast–to–myofibroblast differentiation; assay type: cell-based; conditions: for IC50: read-out: HCA IC50; for inhibition at 10 µM: read-out: Effect HCA at 10 µM [% inhibition]
Experimental: (§1) The plate was washed 3 times with starvation medium, e.g. fibroblast basal medium (FBM, Lonza) supplemented with 0.1% faf BSA, 100 units / ml of penicillin and 100 μg / ml of streptomycin and 250 ng / ml amphotericin B, and then starved for 24 h in 30 μl volume. NHLF were differentiated into myofibroblasts by incubation with 5 ng / ml TGF–β1 (from a stock of 20 μg / ml in 4 mM HCl, 1 mg / ml BSA) for 48 h. Compounds were prepared as 5x stocks in starvation medium and added to the starved cells to a final 1x concentration concomitant with TGF–β1 addition. The final DMSO concentration in the assay was 0.6% in all wells. 48 h after TGF–β1 addition, the medium was removed and the cells were fixed in methanol for 10 min at room temperature (RT). After fixation, cells were washed 3 times with 1 x PBS and either stored at 4°C for up to 3 days or further processed. […] Images were acquired on the Opera Phenix confocal high–content screening system (Perkin Elmer) using the 20–x water immersion lens.
(§2) DAPI stained nuclei were used to identify cells. α–SMA and FN regions were then identified and mapped to the corresponding nuclei for background correction, cell segmentation and cell feature computation to identify, classify and weigh over 400 features per cell. The computed features (S1 Table) comprise, but are not limited to, granularity, intensity, texture, area, shape and solidity of a cell in both α–SMA–and FN–expressing regions. The 0% compound effect (5 ng / ml TGF–β1) and the 100% compound effect (0 ng / ml TGF–β1) controls, were used to train and validate a support vector machine (SVM), a supervised learning model with associated learning algorithm that, once successfully validated, was applied to every cell in every well of the assayed microtiter plate. The SVM allowed autonomous weighting and classification of the characteristics and thus enabled the classifier to decide which characteristics were most relevant for the differentiation of the cell types. […] The classification of each cell was aggregated to a cell type ratio per well, represented as the computed percentage effect value per well indicative of the degree of myofibroblast differentiation. E.g. 100% equals complete myofibroblast differentiation, 0% indicates a pure fibroblast population without any signs of differentiation.

[2] = test system: normal human lung fibroblasts (NHLF); test: Impedance measurement of TGF–β1–induced myofibroblast transition (IPQA), standard assay; assay type: cell-based; conditions: 5 ng/ml TGF–β1, compound added with TGF–β1, impedance at t = 20 h post TGF–β1, mean ± SD, read-out: Impedance IC50
Experimental: To measure dynamic cell shape and adhesion changes during fibrotic transdifferentiation, NHLF were seeded at a density of 20,000 cells per well in FGM–2 growth medium (Lonza) containing 100 units / ml of penicillin and 100 μg / ml of streptomycin into E–plates with continued impedance signal measurement (xCELLigence system, Roche Applied Science). After overnight growth, the medium was exchanged for FBM (Lonza) supplemented with 100 units / ml of penicillin and 100 μg / ml of streptomycin and 0.1% faf BSA and cells were starved for 32 h. Compound dilution series were added and myofibroblast transition was induced by adding TGF–β1 at a concentration of 5 ng / ml, followed by continued impedance sampling for up to 48 h. For data analysis, impedance raw traces were normalized to the time point of compound addition and the baseline response (DMSO, non–TGF–β1 treated cells) was subtracted. In some cases, impedance values at defined time points were used to generate concentration–response curves to determine compound potency and efficacy using GraphPad Prism software version 7 (GraphPad Software Inc).

[3] = test system: α–SMA protein in NHLF cells; test: RapidFire MS/MS quantification of α–SMA (IPQA), standard assay; assay type: cell-based, human; conditions: NHLF, 5 ng/ml TGF–β1, lysed 48 h after TGF–β1, normalized to tubulin; mean ± SD; read-out: MS / MS α–SMA IC50
Experimental: (§3) Cell culture medium was removed and cells were lysed on ice by adding 5 μl / well of pre–cooled protein extraction buffer containing 10 mM Tris–HCl (pH 8.0), 6 M urea and 2 M thiourea and shaking on ice on a plate shaker at 600 rpm for 30 min.
(§4) Cell lysate was transferred to a 96–well polypropylene–PCR–plate. 15 μl / well denaturation buffer (6 M urea, 50 mM ammonium bicarbonate) and 2 μl / well of 50 mM TCEP were added and samples were denatured for 1 h at 60°C using the Veriti 96–well Fast Thermal Cycler System (Applied Biosystem) with a heated lid. Plates were allowed to cool to RT. Subsequently, 2 μl of 100 mM iodoacetamide were added per well to derivatize cysteine residues. Plates were then sealed and vortexed for 2 min in the dark and incubated for 30 min at 37°C in a thermal cycler with a heated lid. 90 μl of 50 mM ammonium bicarbonate pH 7.8 were added, followed by the addition of 10 μl of trypsin at 0.02 μg / ml. Samples were trypsin–digested overnight at 37°C in a thermal cycler with heated lid. […] Samples were desalted under vacuum using an Oasis HLB 96–well (30 μm particle size, 5 mg sorbent / well) reverse phase cartridge according to the manufacturer’s instructions and eluted with 170 μl of 90% acetonitrile, 0.1% formic acid. Samples were dried down with a flow of nitrogen at 40°C, left to cool to RT and re–suspended in 40 μl 5% acetonitrile, 0.1% formic acid on a plate shaker set to 1400 rpm for 5 min. Plates were centrifuged at 4,000 rpm for 10 min and 2 times 12 μl / well of supernatant were transferred into separate 96–well plates (Greiner Bio–One), sealed and stored at 4°C until analyzed by MS / MS.
(§5) Surrogate tryptic peptides were chosen for detection of COL1 (COL1A1), α–SMA (ACTA) and tubulin (TBA1A1) and crude synthetic peptides were purchased from Thermo Fischer. After several rounds of optimization following standard workflows, […] (COL1 / COL1A1), […] (α–SMA / ACTA) and […] LC–MS / MS analysis was performed on a RapidFire™ RF360 system (Agilent Technologies) coupled to an API 5500 (ABSciex) with positive ion electrospray ionization. […] Detection was performed using multiple reaction monitoring (MRM) mode to monitor parent⟶product ion transitions (m / z). […] The source parameters were curtain gas (CUR) nitrogen: 20 psig; collision gas (CAD): 7 psig; ion source gas 1: 50.0 psig; ion source gas 2: 50.0 psig; ion spray voltage (IS): 5500 V; turbo heater temperature (TEM): 600°C; entrance potential (EP): 10V. Peak areas for COL1A1 and ACTA were normalized by dividing by TBA1A peak area.

[4] = test system: COL1 protein in NHLF cells; test: RapidFire MS/MS quantification of COL1 (IPQA), standard assay; assay type: cell-based, human; conditions: NHLF, 5 ng/ml TGF–β1, lysed 48 h after TGF–β1, normalized to tubulin; mean ± SD; read-out: MS / MS COL1 IC50
Experimental: as §3, §4, §5

[5] = test system: normal human lung fibroblasts (NHLF); test: Nuclear count in the HCA, standard assay; assay type: cell-based; conditions: read-out: Nuclear count IC50
Experimental: as §1, §2

NHLF cells = test: RealTime–Glo MT viability assay
Experimental: The effect of compounds on cell viability was assessed by quantifying the relative metabolic activity of cells using the non–lytic luminescence–based RealTime–Glo™ MT cell viability assay (Promega) according to the manufacturer’s instructions.

[6] = NHLF, 5 ng/ml TGF–β1 for 48 h, compound added with TGF–β1, mean ± SD
[7] = Homo sapiens, Fibroblast, 48 h, NHLF, 5 ng/ml TGF–β1 for 48 h, compound added with TGF–β1, mean ± SD
[8] = Homo sapiens, Fibroblast, 10 µM compound, 5 ng/ml TGF–β1, 48 h
[9] = Homo sapiens, Fibroblast, 48 h, standard HCA, NHLF, 5 ng/ml TGF–β1, 48 h
[10] = Homo sapiens, Fibroblast, NHLF, 5 ng/ml TGF–β1 for 48 h, compound added with TGF–β1, mean ± SD
[11] = Homo sapiens, Fibroblast, standard HCA, NHLF, 5 ng/ml TGF–β1, 48 h

SMILES	IC50 [1, 7] [µM]	inhibition at 10 µM [1, 8] [%]	IC50 [5, 9] [µM]	Effect on viability at 10 µM [% reduction] (NHLF cells; human, 10 µM)	Effect on viability at 10 µM [% reduction] (NHLF cells; 10 µM compound)	further results
COc1cc(O)c2c(c1)/C=C/C[C@H](O)[C@H](O)C(=O)/C=C\C[C@H](C)OC2=O [5Z–7–Oxozeaenol]	–	–	–	–	–	IC50 [1, 6]: 2.6 µM; IC50 [2]: 0.25 ± 0.17 µM; IC50 [3]: 0.3 ± 0.27 µM; IC50 [4]: 0.46 ± 0.27 µM
CCCCC(=O)O[C@H]1CC[C@H]2[C@@H]3CCc4cc(O)ccc4[C@H]3CC[C@]12C [Estradiol Valerate]	9.7	66	11	65	–	–
CCOc1ccc2nc3cc(N)ccc3c(N)c2c1 [Ethacridine lactate monohydrate]	7.5	73	> 25	–	–9 % reduction	–
Cc1cc(C#N)cc(C)c1Oc1nc(Nc2ccc(C#N)cc2)nc(N)c1Br [Etravirine (TMC125), Etravirine]	3.9	100	> 25	–	29 % reduction	–
COC(=O)Nc1nc2ccc(Sc3ccccc3)cc2[nH]1 [Fenbendazole]	6.7	76	5.8	51	–	–
CCCCN(CCCC)CCC(O)c1cc2c(Cl)cc(Cl)cc2c2cc(C(F)(F)F)ccc12 (stereo not shown) [Halofantrine hydrochloride]	6.02	101	5.2	–	29 % reduction	–
Clc1cc(Cl)c(OCC#CI)cc1Cl [Haloprogin]	1.3	77	4.5	–	61 % reduction	–
CC(=O)O[C@H]1C[C@H](O[C@H]2[C@@H](O)C[C@H](O[C@H]3[C@@H](O)C[C@H](O[C@H]4CC[C@@]5(C)[C@H](CC[C@@H]6[C@@H]5C[C@@H](O)[C@]5(C)[C@@H](C7=CC(=O)OC7)CC[C@]65O)C4)O[C@@H]3C)O[C@@H]2C)O[C@H](C)[C@H]1O[C@@H]1O[C@H](CO)[C@@H](O)[C@H](O)[C@H]1O [Lanatoside C]	–	100	–	19	–	IC50 [1, 10]: 0.035 µM; IC50 [5, 11]: > 25 µM
C[C@@H]1O[C@@H](O[C@H]2C[C@@H](O)[C@]3(CO)[C@H]4[C@H](O)C[C@]5(C)[C@@H](C6=CC(=O)OC6)CC[C@]5(O)[C@@H]4CC[C@]3(O)C2)[C@H](O)[C@H](O)[C@H]1O [Ouabain]	0.012	100	> 25	–	15 % reduction	–
C[C@@H]1O[C@@H](O[C@@H]2C=C3CC[C@@H]4[C@H](CC[C@]5(C)[C@@H](c6ccc(=O)oc6)CC[C@]45O)[C@@]3(C)CC2)[C@H](O)[C@H](O)[C@H]1O [Proscillaridin A]	–	101	–	–	12 % reduction	IC50 [1, 10]: 0.001 µM; IC50 [5, 11]: > 25 µM
CCSc1ccc2c(c1)N(CCCN1CCN(C)CC1)c1ccccc1S2.O=C(O)CC(O)C(=O)O.O=C(O)CC(O)C(=O)O [Thiethylperazine dimalate]	–	–	–	–	–	Effect HCA at 10 µM [% inhibition] ([1]; 10 µM compound, 5 ng/ml TGF–β1, 48 h): 76 % inhibition; IC50 [1, 6]: 8.5 µM; IC50 ([5]; standard HCA, NHLF, 5 ng/ml TGF–β1, 48 h): 13 µM; Effect on viability at 10 µM [% reduction] (NHLF cells): 34 % reduction
C=C(NC(=O)C(=C)NC(=O)c1csc(C2=N[C@@H]3c4csc(n4)[C@H]4NC(=O)c5csc(n5)[C@H]([C@](C)(O)[C@@H](C)O)NC(=O)[C@H]5CSC(=N5)/C(=C/C)NC(=O)[C@H]([C@@H](C)O)NC(=O)c5csc(n5)[C@]3(CC2)NC(=O)[C@H](C)NC(=O)C(=C)NC(=O)[C@H](C)NC(=O)[C@H]([C@@H](C)CC)N[C@@H]2C=Cc3c([C@H](C)O)cc(nc3[C@H]2O)C(=O)O[C@@H]4C)n1)C(N)=O [Thiostrepton]	–	–	–	–	–11 % reduction	inhibition at 10 µM ([1]; Homo sapiens, Fibroblast, 48 h): 85%; IC50 ([1]; Homo sapiens, Fibroblast, 48 h): 2.2 µM; IC50 ([5]; Homo sapiens, Fibroblast, 48 h): 7.6 µM
CC[C@@]1(O)C(=O)OCc2c1cc1n(c2=O)Cc2cc3c(CN(C)C)c(O)ccc3nc2-1 [Topotecan]	0.97	88	> 25	8	–	–
